The test system of assay [1] is riPSC-CM cardiomyocyte grafts. As to the kind of experiment: Allogeneic rhesus iPSC-CM transplantation into MHC-mismatched rhesus recipients, histopathological immune rejection of the graft. It counts as in vivo, rhesus macaque (Macaca mulatta). The conditions noted are these: low-dose subcutaneous TAC alone, trough 5-10 ng/mL; 8 weeks post-transplant; 200×10^6 riPSC-CMs.
From the text: To identify a minimal, steroid-sparing immunosuppression regimen for first-in-human allogeneic transplantation, a non-human primate (NHP) model was developed where rhesus iPSC-CM are transplanted into normal or infarcted hearts of MHC-mismatched recipients. Allogeneic iPSCs derived from rhesus macaque (Macaca mulatta) were differentiated into a highly enriched population of cardiomyocytes (riPSC-CMs). 200×10^6 riPSC-CMs were transplanted into 11 MHC-mismatched rhesus recipients. The primary study endpoint was the degree of histopathological immune rejection. […] Subsequent studies focused on 8-week engraftment, with promising regimens studied further out to 16 weeks.

The subject of a further assay is T-cell activation. The conditions noted are these: relative to abatacept; cited from earlier work.

In the case of `C=CC[C@@H]1/C=C(\C)C[C@H](C)C[C@H](OC)[C@H]2O[C@@](O)(C(=O)C(=O)N3CCCC[C@H]3C(=O)O[C@H](/C(C)=C/[C@@H]3CC[C@@H](O)[C@H](OC)C3)[C@H](C)[C@@H](O)CC1=O)[C@H](C)C[C@@H]2OC` [tacrolimus], the “degree of histopathological immune rejection of the graft” value in assay [1] was “moderate to severe rejection”.

As to “Belatacept: derivative of abatacept comprising two amino acid alterations in the CD80/86 binding portion”, in the assay with T-cell activation, the “increase in the ability to inhibit T-cell activation in vitro compared to abatacept” value is reported as 10 fold.

The values are drawn from US20240122990A1, “COMPOSITIONS AND METHODS FOR CARDIOMYOCYTE TRANSPLANTATION” (UNIVERSITY OF WASHINGTON, priority 2021, published 2024).
